Experimental data published in patent US10525079B2, “Pharmaceutical composition for preventing or treating breast cancer including crystalline polymorph of tetraarsenic hexoxide, and method for producing same” (CHEMAS CO., LTD., priority 2016, dated 2020).

What was measured:
[1] = tested on: human breast cancer cells, MDA-MB-231; assay: Breast cancer metastasis inhibitory effect in nude mice transplanted with MDA-MB-231; format: in vivo, babl/c-nu male nude mice; details: MDA-MB-231 subcutaneous, oral 4.5 mg/kg for 7 days; for percentage of inhibition of cancer cell metastasis: cancer cells spread to the lungs counted; for spreading of the breast cancer cells to the lungs: versus untreated control
Protocol: The nude mice were allowed free access to food and water, and were bred in a 12-hr light/12-hr dark cycle for 7 days.
The mice were transplanted with human breast cancer cells, MDA-MB-231, through subcutaneous injection, and bred for 7 days. After 7 days, the mice were randomly divided, and then respective mice were orally administered with the compositions of Example 1 and Comparative Example 1 at 4.5 mg/kg for 7 days. Here, the mice treated with nothing after the transplantation of breast cancer cells were used as a control group. After 7 days of administration of the compositions, lung tissues were taken from the mice, and then cancer cells spread to the lungs were counted to compare the degree of inhibition of breast cancer metastasis.

[2] = tested on: human breast cancer cells MCF-7; assay: Cell proliferation assay (MTT assay), MCF-7 cells; format: cell-based
Protocol: (§1) Fetal bovine serum (FBS) and cell culture medium were prepared (Hyclone), and dimethyl sulfoxide (DMSO) and 3-(4,5-dimetyl-thiazol-2yl)-2,5-diphenyltetrazolium bromide (MTT, Amresco LLC, USC) were prepared.
(§2) As human cancer cell lines, human breast cancer cells MCF-7 and SK-BR-3 were obtained from the Shanghai Cell Bank of Chinese Academy of Sciences. The MCF-7 cells were incubated in Minimum Essential Media (MEM) supplemented with 10% FBS, 100 U/ml penicillin, and 100 μg/ml streptomycin and the SK-BR-3 cells were incubated in Dulbecco's modified Eagle's medium (DMEM) supplemented with 10% FBS, 100 U/ml penicillin, and 100 μg/ml streptomycin in a humidified incubator with 5% CO2 and 95% air. The media were exchanged every three days.
(§3) The effects of Example 1 and Comparative Examples 1 to 3 on cell proliferation were assessed using MTT assay. MTT assay is based on the ability of viable cells against MTT to produce insoluble dark blue formazan products. After the cells were suspended in the medium by trypsin treatment and collected, the cells were dispensed at a density of 4×10^3 cells/well in a 96-well culture dish (Costar, Cambridge, Mass., USA). […] All the crystals were completely dissolved by standing at room temperature for 15 minutes, and the absorbance was measured using a micro-plate reader at a wavelength of 570 nm (A570 nm).
(§4) The absorbance value of the control group treated without the sample was calculated as 100, and the absorbance value of the treatment group treated with the sample, compared with that of the control group, was calibrated, and the percentage of inhibition of cell proliferation was calculated according to the following equation. Percentage (%) of inhibition of cell proliferation=((mean absorbance of control group cells−mean absorbance of treatment group cells)/mean absorbance of control group cells)×100
(§5) All data were expressed as mean±standard error of the mean (mean±SEM). […]

metastatic breast cancer = assay: Clinical test in a patient with metastatic breast cancer (CT images of the lungs); format: in vivo, human; details: oral 5 mg three times a day (15 mg/day), after 8, 13, 17 and 22 months of administration
Protocol: The following clinical test was conducted using the composition of Example 1.
The patient received hospital treatments and folk remedies since breast cancer was found in 2006, but the breast cancer was metastasized to the lungs, pleura, bones, and liver. In May 2014, pleural effusion and peritoneal fluid collection were found, and thus the pleural effusion was extracted several times. However, due to a severe difficulty in breathing caused by malignant pleural effusion, the patient breathed through an oxygen respiratory system in an emergency room and hospice medical ward. However, the patient began to develop pallor due to a lack of oxygen, and the patient, having about one week left to live, was orally administered with 5 mg of Example 1 three times a day (15 mg/day).
CT images of the patient before the administration of Example 1 and after 8, 13, 17 and 22 months of administration of Example 1 are shown in FIG. 6. Before the administration of Example 1, the airway was closed due to metastasis to the right lung and left lung, but after 8, 13, 17, and 22 months of administration, the sizes of the cancers in both of the lungs were decreased as the duration of administration increased.

cyclin E1 = assay: RT-PCR mRNA expression of cyclin E1 in MCF-7 cells; format: cell-based, human; details: 0-15 μM, 24 hours, with increase in concentration
Protocol: (§6) Fetal bovine serum (FBS) and cell culture medium were prepared (Hyclone). RT-PCR Kit and Trizol were obtained from Takara Biotechnology CO., LTD., and Annexin V-FITC was obtained from Shanghai Biyuntian Biological Technology Co., LTD. Primers were designed and synthesized by Beijing Aodingkangsheng Biological Technology Co., LTD.
(§7) Human breast cancer cells MCF-7, as a human cancer cell line, were obtained from the Shanghai Cell Bank of Chinese Academy of Sciences. MCF-7 cells were incubated in Minimum Essential media (MEM) supplemented with 10% FBS, 100 U/ml penicillin, and 100 μg/m streptomycin in a humidified incubator with 5% CO2 and 95% air. The media were exchanged every three days.
(§8) In order to investigate the effect of Example 1 on the induction of cell apoptosis, mRNA expression levels of caspase-3, p21, cyclin E1, and cyclin A2, which are genes involved in cell cycle and apoptosis, were examined by RT-PCR. The cells were dispensed at 1×10^5 cells/well in a 6-well culture dish, and incubated for 24 hours. After 24 hours, the cells contained in the MEM containing 10% FBS were treated with Example 1 at 0, 1, 3, 6, 9, 12 or 15 μM, and incubated for 24 hours. After 24 hours, the cells were collected, and then RNA was extracted using Trizol reagent. […]

caspase-3 = assay: RT-PCR mRNA expression of caspase-3 in MCF-7 cells; format: cell-based, human; details: 0-15 μM, 24 hours, with increase in concentration
Protocol: as §6, §7, §8

p21 = assay: RT-PCR mRNA expression of p21 in MCF-7 cells; format: cell-based, human; details: 0-15 μM, 24 hours, with increase in concentration
Protocol: as §6, §7, §8

cyclin A2 = assay: RT-PCR mRNA expression of cyclin A2 in MCF-7 cells; format: cell-based, human; details: 0-15 μM, 24 hours, with increase in concentration
Protocol: as §6, §7, §8

[3] = tested on: human breast cancer cells SK-BR-3; assay: Cell proliferation assay (MTT assay), SK-BR-3 cells; format: cell-based
Protocol: as §1, §2, §3, §4, §5

[4] = tested on: human breast cancer cells MCF-7; assay: Induction of cell apoptosis by flow cytometry (Annexin V-FITC / PI); format: cell-based; details: MCF-7 cells, 0, 1, 3, 6, 9, 12 or 15 μM, 24 hours; with increase in treatment concentration
Protocol: as §6, §7
The effect of Example 1 on the induction of cell apoptosis was assessed by flow cytometry. The cells were dispensed at 1×10^5 cells/well in a 6-well culture dish, and incubated for 24 hours. After 24 hours, the cells contained in the MEM containing 10% FBS were treated with Example 1 at 0, 1, 3, 6, 9, 12 or 15 μM, and incubated for 24 hours. After 24 hours, the cells were treated using Annexin V-FITC kit to check cell apoptosis, and also treated with propidium iodide (PI) for distinguishment from natural cell death. […] The cells treated with the Annexin V-FITC kit were analyzed for the degree of cell apoptosis by using the BD FACS calibur flow cytometry system. […]

[5] = compared with Comparative Example 2 or 3 (Example 1 and Comparative Example 1 mixed at 4:1 or 1:1)

Row | Molecule | percentage of inhibition of cancer cell metastasis [1] | spreading of the breast cancer cells to the lungs [1] | percentage of inhibition of MCF-7 cell proliferation [2, 5] | percentage of inhibition of MCF-7 cell proliferation ([2]; incubation 48 hours (FIG. 2A), compared with Comparative Example 1, 0-80 μM) | percentage of inhibition of MCF-7 cell proliferation ([2]; incubation 72 hours (FIG. 2B), compared with Comparative Example 1, 0-80 μM) | sizes of the cancers in both of the lungs (CT images) (metastatic breast cancer) | mRNA expression of cyclin E1 (cyclin E1) | mRNA expression of caspase-3 (caspase-3) | mRNA expression of p21 (p21) | mRNA expression of cyclin A2 (cyclin A2) | percentage of inhibition of SK-BR-3 cell proliferation [3, 5] | percentage of inhibition of SK-BR-3 cell proliferation ([3]; incubation 48 hours (FIG. 3A), compared with Comparative Example 1, 0-80 μM) | percentage of inhibition of SK-BR-3 cell proliferation ([3]; incubation 72 hours (FIG. 3B), compared with Comparative Example 1, 0-80 μM) | cell apoptosis (annexin V compared with PI) [4]
1 | O1[As]2O[As]3O[As]1O[As](O2)O3 [Comparative Example 1, tetraarsenic hexoxide] | 50% | inhibited | – | – | – | – | – | – | – | – | – | – | – | –
2 | tetraarsenic hexoxide [Example 1] | ≥ 90% | inhibited | higher | higher | higher | decreased | increased | increased | increased | decreased | higher | higher | higher | increased
